Measurements: ChEMBL document CHEMBL1201862, “PubChem BioAssay data set” (2004)
Values belong to the compound of their own block, whether it stands above or below them. Calls of active or inactive are those of the source.

Experiments:
[1] = biological target: E3 ubiquitin-protein ligase Mdm2 (Homo sapiens, UniProt Q00987); assay: enhancers of MDM2-luciferase reporter signal, concentration-effect titration, project on inhibitors of MDM2 ubiquitin ligase, cellular assay, luminescent readout, 384-well plate format (AID 1394); format: functional;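 note: MDM2 E3 inhibitors raise luminescence so EC50 is for signal enhancement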
Sequence of E3 ubiquitin-protein ligase Mdm2 (Q00987 whole entry): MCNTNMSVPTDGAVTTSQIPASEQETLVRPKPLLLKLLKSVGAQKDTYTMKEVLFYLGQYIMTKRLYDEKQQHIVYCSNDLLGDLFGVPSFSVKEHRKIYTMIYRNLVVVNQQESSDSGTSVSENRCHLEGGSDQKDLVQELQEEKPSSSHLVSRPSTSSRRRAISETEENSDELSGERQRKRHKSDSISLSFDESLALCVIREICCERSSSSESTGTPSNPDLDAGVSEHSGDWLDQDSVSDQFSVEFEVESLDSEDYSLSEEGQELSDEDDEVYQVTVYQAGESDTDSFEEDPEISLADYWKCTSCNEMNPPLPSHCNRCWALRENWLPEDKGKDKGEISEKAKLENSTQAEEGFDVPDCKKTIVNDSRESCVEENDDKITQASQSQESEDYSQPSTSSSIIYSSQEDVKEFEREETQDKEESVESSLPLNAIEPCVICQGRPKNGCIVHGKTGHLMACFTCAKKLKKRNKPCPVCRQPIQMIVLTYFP

[2] = growth suppression of PTEN-null colon cells, dose response, cell-based, HCT116 PTEN knockout (AID 1047); format: functional;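 note: HCT116 colon tumor cells with PTEN knocked out; cells exposed to compound for 60 hours before readout; potency for loss of cell viability measured by luminescence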
[3] = growth suppression of beta-catenin-knockout colon cells, dose response, cell-based, HCT116, human colon tumor (AID 1045); format: functional;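 note: HCT116 colon tumor cells with beta catenin knocked out; cells exposed to compound for 60 hours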
[4] = Luminescence Cell-Based Dose Retest to Confirm Inhibitors of Cancer Stem Cells. [Related pubchem assays (depositor defined):AID2717, AID2721]; format: functional; conditions: Homo sapiens
[5] = biological target: T1, Microphthalmia-associated transcription factor (Homo sapiens, UniProt O75030); assay: TRPM1 promoter luciferase signal decrease, dose response, MITF inhibitor project, cell-based, SK-MEL-5, cherry-picked, set 3 (AID 493073); format: functional
T1 sequence (O75030 whole entry): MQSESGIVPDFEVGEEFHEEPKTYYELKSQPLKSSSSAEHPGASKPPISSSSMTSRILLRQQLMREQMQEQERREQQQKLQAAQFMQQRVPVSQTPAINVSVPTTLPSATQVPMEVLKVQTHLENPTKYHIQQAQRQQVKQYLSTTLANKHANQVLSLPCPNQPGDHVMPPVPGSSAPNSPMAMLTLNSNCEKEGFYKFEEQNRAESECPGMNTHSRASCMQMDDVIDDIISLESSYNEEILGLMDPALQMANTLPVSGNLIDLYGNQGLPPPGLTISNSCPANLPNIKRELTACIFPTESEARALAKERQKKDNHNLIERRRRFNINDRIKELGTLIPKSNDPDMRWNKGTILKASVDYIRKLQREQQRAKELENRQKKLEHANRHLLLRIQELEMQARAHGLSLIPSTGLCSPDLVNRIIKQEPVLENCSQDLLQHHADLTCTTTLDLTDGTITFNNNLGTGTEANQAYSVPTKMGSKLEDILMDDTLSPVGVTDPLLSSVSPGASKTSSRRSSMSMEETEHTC

[6] = Fluorescence-based cell-based high throughput dose response assay for inhibitors of the interaction of nucleotide-binding oligomerization domain containing 2 (NOD2) and the receptor-interacting serine-threonine kinase 2 (RIPK2).; format: functional; conditions: Homo sapiens
[7] = inhibitors of PGC1a acetylation in cells, dose response, cell-based, cherry-picked samples (AID 720514); format: functional;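 note: potency may reflect raised or lowered acetylation signal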
Kallikrein-7 = Kallikrein-7 (Homo sapiens, UniProt P49862); assay: Fluorescence Intensity-based biochemical primary high throughput dose response assay to identify activators of kallikrein-7 (K7) zymogen.
Sequence of Kallikrein-7 (P49862 whole entry, the tested form may be a part): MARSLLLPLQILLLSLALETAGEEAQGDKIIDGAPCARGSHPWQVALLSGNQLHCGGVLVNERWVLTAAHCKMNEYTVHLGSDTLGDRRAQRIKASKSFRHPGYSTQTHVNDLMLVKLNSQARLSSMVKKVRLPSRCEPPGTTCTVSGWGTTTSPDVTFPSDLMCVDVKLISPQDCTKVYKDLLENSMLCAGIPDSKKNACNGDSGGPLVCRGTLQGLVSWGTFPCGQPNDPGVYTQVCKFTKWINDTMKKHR

Hexokinase-1 = biological target: T2, Hexokinase-1 (Homo sapiens, UniProt P19367); assay: SAR analysis of small molecule inhibitors of hexokinase domain containing I (HKDC1) in the hexokinase 1 selectivity assay. [Related pubchem assays (depositor defined):AID493160, AID493190]; format: functional
T2 sequence (P19367 whole entry): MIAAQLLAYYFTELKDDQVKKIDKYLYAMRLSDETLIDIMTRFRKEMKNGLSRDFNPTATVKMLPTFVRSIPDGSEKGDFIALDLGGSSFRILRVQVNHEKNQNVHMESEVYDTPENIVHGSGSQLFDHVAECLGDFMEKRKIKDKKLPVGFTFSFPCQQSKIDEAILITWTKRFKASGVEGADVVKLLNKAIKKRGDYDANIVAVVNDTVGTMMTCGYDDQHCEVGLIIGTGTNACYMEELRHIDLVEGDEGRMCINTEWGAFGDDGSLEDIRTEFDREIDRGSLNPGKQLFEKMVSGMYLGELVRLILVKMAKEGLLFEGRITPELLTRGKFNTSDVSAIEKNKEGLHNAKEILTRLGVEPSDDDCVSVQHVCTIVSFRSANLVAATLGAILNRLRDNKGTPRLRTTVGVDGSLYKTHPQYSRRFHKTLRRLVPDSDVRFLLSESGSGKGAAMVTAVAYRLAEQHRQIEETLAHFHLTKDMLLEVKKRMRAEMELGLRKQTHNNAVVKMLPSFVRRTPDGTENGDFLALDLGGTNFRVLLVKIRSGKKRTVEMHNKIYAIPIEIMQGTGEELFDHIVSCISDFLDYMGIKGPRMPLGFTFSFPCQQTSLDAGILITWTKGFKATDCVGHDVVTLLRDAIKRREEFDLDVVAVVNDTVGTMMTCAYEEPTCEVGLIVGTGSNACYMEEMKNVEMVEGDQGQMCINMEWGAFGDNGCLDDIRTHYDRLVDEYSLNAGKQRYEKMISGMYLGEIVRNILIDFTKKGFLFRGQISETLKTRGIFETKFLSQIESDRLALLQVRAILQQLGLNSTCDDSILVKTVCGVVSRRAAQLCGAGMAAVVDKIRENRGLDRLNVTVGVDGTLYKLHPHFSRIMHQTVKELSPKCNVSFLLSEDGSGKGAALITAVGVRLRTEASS

Hexokinase HKDC1 = biological target: T3, Hexokinase HKDC1 (Homo sapiens, UniProt Q2TB90); assay: SAR analysis of small molecule inhibitors of hexokinase domain containing I (HKDC1). [Related pubchem assays (depositor defined):AID493160, AID493190]; format: functional
T3 sequence (Q2TB90 whole entry): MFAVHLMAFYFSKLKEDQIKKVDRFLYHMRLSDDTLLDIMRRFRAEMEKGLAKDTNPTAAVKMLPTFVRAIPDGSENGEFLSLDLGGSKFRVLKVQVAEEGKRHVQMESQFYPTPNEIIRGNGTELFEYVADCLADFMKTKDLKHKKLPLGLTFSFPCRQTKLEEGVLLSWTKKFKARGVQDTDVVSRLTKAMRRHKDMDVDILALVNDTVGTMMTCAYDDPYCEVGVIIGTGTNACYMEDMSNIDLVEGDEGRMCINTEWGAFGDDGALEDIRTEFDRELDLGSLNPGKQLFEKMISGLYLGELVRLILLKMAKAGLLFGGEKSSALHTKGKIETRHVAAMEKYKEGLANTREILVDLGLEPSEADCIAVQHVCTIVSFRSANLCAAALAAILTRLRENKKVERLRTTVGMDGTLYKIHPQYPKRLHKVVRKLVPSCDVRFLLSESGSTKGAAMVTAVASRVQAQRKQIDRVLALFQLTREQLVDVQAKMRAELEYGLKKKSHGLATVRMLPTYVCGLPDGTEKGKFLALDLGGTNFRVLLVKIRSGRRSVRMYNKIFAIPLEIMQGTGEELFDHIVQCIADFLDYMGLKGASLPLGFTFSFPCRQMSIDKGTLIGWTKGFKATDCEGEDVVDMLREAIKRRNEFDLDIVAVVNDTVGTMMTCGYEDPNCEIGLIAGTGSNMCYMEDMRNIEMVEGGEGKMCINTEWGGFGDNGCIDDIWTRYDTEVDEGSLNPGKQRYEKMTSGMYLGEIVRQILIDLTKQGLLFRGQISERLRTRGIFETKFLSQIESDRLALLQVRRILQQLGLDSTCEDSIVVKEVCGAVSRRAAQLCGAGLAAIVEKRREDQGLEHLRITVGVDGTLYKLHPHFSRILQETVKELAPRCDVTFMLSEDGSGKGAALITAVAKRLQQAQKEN

[8] = BHK-21 cell cytotoxicity, cytotoxicity control for flavivirus guanylyltransferase probe project, secondary screen (AID 624078); format: functional
[9] = biological target: NAD-dependent protein deacylase sirtuin-5, mitochondrial (Homo sapiens, UniProt Q9NXA8); assay: SIRT5 desuccinylase inhibitors, dose response, biochemical, fluorescence imaging, cherry-pick, set 5 (AID 720591);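 note: desuccinylation of succinyl peptide AMC substrate read as fluorescence after trypsin release; potency of inhibitors that lower fluorescence and may act on trypsin instead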
Sequence of NAD-dependent protein deacylase sirtuin-5, mitochondrial (Q9NXA8 whole entry): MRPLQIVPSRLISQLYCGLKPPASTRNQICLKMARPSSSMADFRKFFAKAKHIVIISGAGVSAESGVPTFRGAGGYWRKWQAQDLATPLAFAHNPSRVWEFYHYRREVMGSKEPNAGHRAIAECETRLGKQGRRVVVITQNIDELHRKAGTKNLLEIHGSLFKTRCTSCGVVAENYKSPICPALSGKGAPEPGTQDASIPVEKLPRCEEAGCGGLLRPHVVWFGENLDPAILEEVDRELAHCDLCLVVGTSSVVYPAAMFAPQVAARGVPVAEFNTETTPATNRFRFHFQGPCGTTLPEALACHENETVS

[10] = biological target: ATP-dependent translocase ABCB1 (Homo sapiens, UniProt P08183); assay: ABCB1 efflux inhibition concentration-response, dose response, Jurkat-DNR cells, JC-1, flow cytometry, follow-up (AID 489002); format: functional
Sequence of ATP-dependent translocase ABCB1 (P08183 whole entry): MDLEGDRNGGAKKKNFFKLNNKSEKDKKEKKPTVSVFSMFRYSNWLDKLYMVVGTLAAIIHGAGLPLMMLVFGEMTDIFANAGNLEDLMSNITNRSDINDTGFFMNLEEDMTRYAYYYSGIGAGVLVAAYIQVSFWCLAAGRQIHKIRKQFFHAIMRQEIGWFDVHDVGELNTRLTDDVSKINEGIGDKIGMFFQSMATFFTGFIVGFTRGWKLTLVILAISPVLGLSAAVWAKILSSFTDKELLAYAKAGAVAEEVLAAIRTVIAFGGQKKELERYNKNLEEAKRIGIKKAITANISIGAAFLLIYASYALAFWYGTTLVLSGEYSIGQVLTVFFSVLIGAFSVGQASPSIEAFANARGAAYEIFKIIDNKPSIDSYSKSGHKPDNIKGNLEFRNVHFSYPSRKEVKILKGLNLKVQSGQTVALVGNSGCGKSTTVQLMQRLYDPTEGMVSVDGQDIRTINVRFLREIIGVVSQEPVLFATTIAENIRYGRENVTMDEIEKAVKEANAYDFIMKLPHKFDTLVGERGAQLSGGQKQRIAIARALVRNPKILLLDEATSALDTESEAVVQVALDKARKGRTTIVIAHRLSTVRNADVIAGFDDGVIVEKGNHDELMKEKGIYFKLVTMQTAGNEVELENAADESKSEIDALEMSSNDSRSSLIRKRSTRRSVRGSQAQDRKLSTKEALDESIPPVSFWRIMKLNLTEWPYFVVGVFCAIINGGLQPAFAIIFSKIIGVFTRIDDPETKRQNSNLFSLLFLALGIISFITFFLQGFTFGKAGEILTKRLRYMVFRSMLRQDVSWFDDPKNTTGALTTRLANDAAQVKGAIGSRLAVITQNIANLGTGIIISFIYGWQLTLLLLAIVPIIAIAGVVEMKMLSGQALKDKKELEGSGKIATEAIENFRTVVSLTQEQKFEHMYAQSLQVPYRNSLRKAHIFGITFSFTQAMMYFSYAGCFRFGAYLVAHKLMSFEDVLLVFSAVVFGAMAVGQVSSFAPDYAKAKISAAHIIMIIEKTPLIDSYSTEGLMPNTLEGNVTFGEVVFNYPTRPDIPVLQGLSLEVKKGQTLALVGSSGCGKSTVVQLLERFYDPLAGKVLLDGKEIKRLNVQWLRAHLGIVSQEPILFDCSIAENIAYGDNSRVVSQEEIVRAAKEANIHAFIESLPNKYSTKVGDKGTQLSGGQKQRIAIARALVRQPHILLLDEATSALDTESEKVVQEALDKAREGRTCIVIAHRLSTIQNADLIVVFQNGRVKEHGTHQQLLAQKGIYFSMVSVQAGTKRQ

Compound: O=C(Cn1ncc(Cl)c(Cl)c1=O)NCC1CCCCC1
EC50 [1]: 1.89 µM (active) | EC50 [2]: 2.58 µM (active) | EC50 [3]: 1.44 µM (active) | AC50 [4]: 2.83 µM (active) | AC50 [5]: 7.39 µM (active) | IC50 [6]: 3.98 µM (active) | AC50 [7]: 3.97 µM (active)

EC50 (Kallikrein-7): 34.8 µM (inactive)
Compound: CCNC(=O)/C(C#N)=C/c1c(N2CCN(c3ccccc3)CC2)nc2ccccn2c1=O

IC50 (Hexokinase-1): 50.6 µM (inactive) | IC50 (Hexokinase HKDC1): 5.44 µM (active)
Compound: Cc1ccc(S(=O)(=O)Nc2cc(SCC(=O)O)c(O)c3ccccc23)cc1
CC50 [8]: 9.31 µM (active)

AC50 [9]: 5.41 µM (active)
Compound: O=C(O)CCNc1nc(-c2ccccc2)nc2ccccc12

EC50 [10]: 148.5 pM
Compound: CN(CCN(C)c1cc(-c2ccco2)nc2cc(-c3ccccc3)nn12)C(=O)c1ccoc1
